For this data set, the system named is microglia and CNS-infiltrating monocytes. Briefly: mRNA expression in microglia and CNS-infiltrating monocytes from EAE NOD mice. It counts as in vivo, mouse. From the text: FIGS. 5a-m. B4GALT6 in astrocytes regulates the activation of microglia and CNS-infiltrating monocytes. (a) Heatmap depicting mRNA expression, as determined by nCounter Nanostring analysis, in microglia from naïve or EAE NOD mice treated with PDMP or vehicle. Representative data of three independent experiments. Statistical analysis by Student's t-test. (b) qPCR analysis of ccl5, il1b, opn, nos2, cd40, and H2-Aa gene expression relative to Gapdh. (c, d) Mean normalized expression of genes associated with M1- or M2-phenotype in microglia (Table 3) (c) and Ly6C^high monocytes (d). Statistical analysis by Student's t-test. (e-h) primary microglia were pre-treated with PDMP, LacCer, or vehicle, followed by activation with LPS/IFNγ for 6 h or left un-treated (control) as in (FIG. 3a). mRNA expression was determined by nCounter Nanostring analysis (e, g), and microglial viability was determined (f, h). Representative data of five independent experiments. (i) Mixed glia cultures were treated with mild trypsin/EDTA (T/E) to remove the astrocyte monolayer leaving only the microglia attached to the plate, or left un-treated. Cultures were pre-treated with PDMP, LacCer or vehicle, and activated with LPS/IFNγ for 6 h. Following activation, both cultures were washed, and incubated with mild T/E to remove the astrocytes; thus, leaving only the microglia (MG) attached to the plates. RNA was harvested from microglia treated in the absence [MG (pure)] or presence [MG (mixed)] of astrocytes and gene expression was analyzed by qPCR for the expression ccl2, ccl5 and nos2 relative to gapdh. Data present the relative effect of PDMP (left panel) or LacCer (right panel) pre-treatment on LPS/IFNγ-triggered gene induction, from five independent experiments. Statistical analysis by Student's t-test. (j) Mixed glia were pre-treated with indicated blocking antibodies or appropriate isotype controls (25 μg/ml) and LacCer […] or vehicle control, and then activated with LPS/IFNγ for 6 h. Microglia were isolated as in (i), and microglial-nos2 expression was determined by qRT relative to gapdh and presented as in (i). Representative data of three independent experiments. (k) ChIP analysis of the interaction of NF-κB, and IRF-1 with the csf2 promoter in primary cultured astrocytes. (l, m) Expression csf2 in astrocytes (l) and nos2 in microglial cells (m) isolated form the CNS of chronic EAE NOD mice, 10 days after the i.c.v. injection of astrocytes-specific shRNA lentivirus as in (FIG. 3j). Data from two independent experiments. For all data, means and s.e.m. are shown. *P<0.05, **P<0.01, ***P<0.001 and n.s. not significant.
Mononuclear cells were isolated from the CNS as previously described^50 with minor modifications. […]

For the compound `CCCCCCCCCC(=O)N[C@H](CN1CCOCC1)[C@H](O)c1ccccc1` [PDMP, D-threo-1-phenyl-2-decanoylamino-3-morpholino-1-propanol], for the setting “NOD EAE”, the “M1-associated genes in microglia and CNS-infiltrating monocytes” value is listed as “significant down regulation”; the “M2-associated genes in microglia and CNS-infiltrating monocytes” value is “up-regulation”. In addition, where the note is “microglia from NOD EAE progressive phase”, the “expression of genes associated with microglia activation” value was “reduced the expression”.

For “shB4galt6: lentivirus-delivered shRNA against b4galt6 (TRCN0000334278; SEQ ID NO:3) (guide CGATGGACTGAACAATTTATTCTCGAGAATAAATTGTTCAGTCCACG)”, under “chronic NOD EAE, 10 days after i.c.v. shRNA lentivirus”, the “nos2 expression in microglia” value was “decreased nos2 expression”.

The values are drawn from patent publication US9927437B2, “Treating neurodegenerative disease” (THE BRIGHAM AND WOMEN'S HOSPITAL, INC., priority 2013, dated 2018).
